Source: ChEMBL document CHEMBL1201862, “PubChem BioAssay data set” (2004)
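Growth conditions: 96-well plates. Treatment: test compound, 48 hours, 5 concentrations. Analysis: linear interpolation between bracketing concentrations; unreached endpoints set to highest concentration. GI50 = concentration required for 50% inhibition of growth.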 Calls of active or inactive are those of the source. Rule as the data show it: active = GI50 up to about 1.1 µM and inactive = higher.

Legend:
Assay in all cases: NCI tumour cell line growth inhibition, 48 h
HCT-15 = system: HCT-15
COLO 205 = system: COLO 205
A549 = system: A549
OVCAR-3 = system: OVCAR-3
SN12C = system: SN12C
786-0 = system: 786-0
TK-10 = system: TK-10
MDA-N = system: MDA-N
UACC-257 = system: UACC-257
SK-MEL-2 = system: SK-MEL-2
NCI-H226 = system: NCI-H226
T47D = system: T47D
MCF7 = system: MCF7
A498 = system: A498
SK-OV-3 = system: SK-OV-3
Malme-3M = system: Malme-3M
MDA-MB-435 = system: MDA-MB-435
OVCAR-4 = system: OVCAR-4
Hs-578T = system: Hs-578T
ACHN = system: ACHN
CCRF-CEM = system: CCRF-CEM
KM12 = system: KM12
UO-31 = system: UO-31
HCT-116 = system: HCT-116
DU-145 = system: DU-145
SF-268 = system: SF-268
SK-MEL-5 = system: SK-MEL-5
SK-MEL-28 = system: SK-MEL-28
HOP-62 = system: HOP-62
IGROV-1 = system: IGROV-1
NCI-H522 = system: NCI-H522
SF-295 = system: SF-295
HOP-92 = system: HOP-92
NCI-H460 = system: NCI-H460
SW-620 = system: SW-620
MOLT-4 = system: MOLT-4
BT-549 = system: BT-549
SNB-75 = system: SNB-75
NCI/ADR-RES = system: NCI/ADR-RES
LOX IMVI = system: LOX IMVI
SF-539 = system: SF-539
HT-29 = system: HT-29
OVCAR-8 = system: OVCAR-8
PC-3 = system: PC-3
RPMI-8226 = system: RPMI-8226
SR = system: SR
HCC 2998 = system: HCC 2998
EKVX = system: EKVX
NCI-H23 = system: NCI-H23
OVCAR-5 = system: OVCAR-5
M14 = system: M14
CAKI-1 = system: CAKI-1
SNB-19 = system: SNB-19
U-251 = system: U-251
HL-60 = system: HL-60
K562 = system: K562
RXF 393 = system: RXF 393
UACC-62 = system: UACC-62
MDA-MB-231 = system: MDA-MB-231

## c1ccc(CNC2CC(NCc3ccccn3)CC(NCc3ccccn3)C2)nc1 (stereo unspecified)
HCT-15
  GI50: 4.72 µM
COLO 205
  GI50: 1.09 µM (active)
A549
  GI50: 2.61 µM (inactive)
OVCAR-3
  GI50: 4.08 µM (inactive)
SN12C
  GI50: 5.22 µM (inactive)
786-0
  GI50: 2.38 µM (inactive)
TK-10
  GI50: 3.45 µM (inactive)
MDA-N
  GI50: 4.47 µM (inactive)
UACC-257
  GI50: 4.53 µM (inactive)
SK-MEL-2
  GI50: 5.11 µM (inactive)
NCI-H226
  GI50: 3.32 µM (inactive)
T47D
  GI50: 5.66 µM (inactive)
MCF7
  GI50: 3.5 µM (inactive)
A498
  GI50: 3.05 µM (inactive)
SK-OV-3
  GI50: 4.46 µM (inactive)
Malme-3M
  GI50: 3.52 µM (inactive)
MDA-MB-435
  GI50: 4.5 µM (inactive)
OVCAR-4
  GI50: 4.13 µM (inactive)
Hs-578T
  GI50: 7.66 µM (inactive)
ACHN
  GI50: 9.51 µM (inactive)
CCRF-CEM
  GI50: 2.61 µM (inactive)
KM12
  GI50: 2.7 µM (inactive)
UO-31
  GI50: > 25 µM (inactive)
HCT-116
  GI50: 3.1 µM (inactive)
DU-145
  GI50: 4.73 µM (inactive)
SF-268
  GI50: 5 µM (inactive)
SK-MEL-5
  GI50: 3.54 µM (inactive)
SK-MEL-28
  GI50: 3.08 µM (inactive)
HOP-62
  GI50: 6.89 µM (inactive)
IGROV-1
  GI50: 4.38 µM (inactive)
NCI-H522
  GI50: 4.6 µM (inactive)
SF-295
  GI50: 6.21 µM (inactive)
HOP-92
  GI50: 4.67 µM (inactive)
NCI-H460
  GI50: 5.15 µM (inactive)
SW-620
  GI50: 6.61 µM (inactive)
MOLT-4
  GI50: 3.39 µM (inactive)
BT-549
  GI50: 5.27 µM (inactive)
SNB-75
  GI50: 4.27 µM (inactive)

## CC1(C)CC(=O)c2c(nc(SSc3nc4c(c(-c5ccc(Br)cc5)c3C#N)C(=O)CC(C)(C)C4)c(C#N)c2-c2ccc(Br)cc2)C1
HCT-15
  GI50: > 10 µM
NCI/ADR-RES
  GI50: > 10 µM (inactive)
COLO 205
  GI50: > 10 µM (inactive)
A549
  GI50: > 10 µM (inactive)
OVCAR-3
  GI50: > 10 µM (inactive)
SN12C
  GI50: > 10 µM (inactive)
786-0
  GI50: > 10 µM (inactive)
TK-10
  GI50: > 10 µM (inactive)
MDA-N
  GI50: > 10 µM (inactive)
UACC-257
  GI50: > 10 µM (inactive)
SK-MEL-2
  GI50: > 10 µM (inactive)
LOX IMVI
  GI50: > 10 µM (inactive)
SF-539
  GI50: > 10 µM (inactive)
HT-29
  GI50: > 10 µM (inactive)
OVCAR-8
  GI50: > 10 µM (inactive)
NCI-H226
  GI50: > 10 µM (inactive)
T47D
  GI50: > 10 µM (inactive)
PC-3
  GI50: > 10 µM (inactive)
MCF7
  GI50: > 10 µM (inactive)
A498
  GI50: > 10 µM (inactive)
RPMI-8226
  GI50: > 10 µM (inactive)
SK-OV-3
  GI50: > 10 µM (inactive)
Malme-3M
  GI50: > 10 µM (inactive)
SR
  GI50: > 10 µM (inactive)
OVCAR-4
  GI50: > 10 µM (inactive)
HCC 2998
  GI50: > 10 µM (inactive)
Hs-578T
  GI50: > 10 µM (inactive)
ACHN
  GI50: > 10 µM (inactive)
EKVX
  GI50: > 10 µM (inactive)
NCI-H23
  GI50: > 10 µM (inactive)
CCRF-CEM
  GI50: > 10 µM (inactive)
OVCAR-5
  GI50: > 10 µM (inactive)
KM12
  GI50: > 10 µM (inactive)
UO-31
  GI50: > 10 µM (inactive)
M14
  GI50: > 10 µM (inactive)
HCT-116
  GI50: > 10 µM (inactive)
DU-145
  GI50: > 10 µM (inactive)
CAKI-1
  GI50: > 10 µM (inactive)
SF-268
  GI50: > 10 µM (inactive)
SNB-19
  GI50: > 10 µM (inactive)
SK-MEL-5
  GI50: > 10 µM (inactive)
SK-MEL-28
  GI50: > 10 µM (inactive)
HOP-62
  GI50: > 10 µM (inactive)
U-251
  GI50: > 10 µM (inactive)
IGROV-1
  GI50: > 10 µM (inactive)
HL-60
  GI50: > 10 µM (inactive)
NCI-H522
  GI50: > 10 µM (inactive)
SF-295
  GI50: > 10 µM (inactive)
HOP-92
  GI50: > 10 µM (inactive)
NCI-H460
  GI50: > 10 µM (inactive)
K562
  GI50: > 10 µM (inactive)
SW-620
  GI50: > 10 µM (inactive)
MOLT-4
  GI50: > 10 µM (inactive)
RXF 393
  GI50: > 10 µM (inactive)
BT-549
  GI50: > 10 µM (inactive)
SNB-75
  GI50: > 10 µM (inactive)

## COC(=O)/C=C1/OC(c2ccccc2)=C(C)C1=O
HCT-15
  GI50: 4.79 µM
NCI/ADR-RES
  GI50: 20.9 µM (inactive)
COLO 205
  GI50: 17.5 µM (inactive)
OVCAR-3
  GI50: 20 µM (inactive)
786-0
  GI50: 10.2 µM (inactive)
TK-10
  GI50: 15.7 µM (inactive)
MDA-N
  GI50: 1.36 µM (inactive)
LOX IMVI
  GI50: 1.28 µM (inactive)
SF-539
  GI50: 17.4 µM (inactive)
UACC-62
  GI50: 4.12 µM (inactive)
HT-29
  GI50: 1.98 µM (inactive)
OVCAR-8
  GI50: 6.08 µM (inactive)
NCI-H226
  GI50: 15.8 µM (inactive)
T47D
  GI50: 20.1 µM (inactive)
MCF7
  GI50: 3.81 µM (inactive)
A498
  GI50: 18.7 µM (inactive)
RPMI-8226
  GI50: 2.19 µM (inactive)
SK-OV-3
  GI50: 10.7 µM (inactive)
Malme-3M
  GI50: 13.3 µM (inactive)
MDA-MB-435
  GI50: 13.9 µM (inactive)
SR
  GI50: 2.61 µM (inactive)
HCC 2998
  GI50: 16.6 µM (inactive)
Hs-578T
  GI50: 27.5 µM (inactive)
ACHN
  GI50: 13 µM (inactive)
EKVX
  GI50: 17.9 µM (inactive)
NCI-H23
  GI50: 20.2 µM (inactive)
CCRF-CEM
  GI50: 3.62 µM (inactive)
OVCAR-5
  GI50: 16 µM (inactive)
KM12
  GI50: 14.1 µM (inactive)
UO-31
  GI50: 13.8 µM (inactive)
M14
  GI50: 11.7 µM (inactive)
HCT-116
  GI50: 4.18 µM (inactive)
DU-145
  GI50: 19.3 µM (inactive)
CAKI-1
  GI50: 4.05 µM (inactive)
SF-268
  GI50: 17.9 µM (inactive)
SNB-19
  GI50: 16.4 µM (inactive)
SK-MEL-5
  GI50: 13.6 µM (inactive)
SK-MEL-28
  GI50: 16.8 µM (inactive)
HOP-62
  GI50: 16 µM (inactive)
MDA-MB-231
  GI50: 4.86 µM (inactive)
U-251
  GI50: 14.1 µM (inactive)
IGROV-1
  GI50: 14.1 µM (inactive)
HL-60
  GI50: 1.97 µM (inactive)
NCI-H522
  GI50: 12.6 µM (inactive)
SF-295
  GI50: 13.3 µM (inactive)
HOP-92
  GI50: 13.2 µM (inactive)
NCI-H460
  GI50: 20 µM (inactive)
K562
  GI50: 3.2 µM (inactive)
SW-620
  GI50: 2.4 µM (inactive)
MOLT-4
  GI50: 3.28 µM (inactive)
RXF 393
  GI50: 10.6 µM (inactive)
BT-549
  GI50: 2.86 µM (inactive)
SNB-75
  GI50: 23.6 µM (inactive)

## N#CC1(C#N)N[C@@H](c2ccsc2)[C@H]2C(=O)N(c3ccccc3)C(=O)[C@H]21
NCI/ADR-RES
  GI50: > 100 µM (inactive)
COLO 205
  GI50: 93.8 µM (inactive)
A549
  GI50: > 100 µM (inactive)
OVCAR-3
  GI50: > 100 µM (inactive)
SN12C
  GI50: 89.1 µM (inactive)
786-0
  GI50: > 100 µM (inactive)
TK-10
  GI50: > 100 µM (inactive)
MDA-N
  GI50: 38.3 µM (inactive)
UACC-257
  GI50: 29.6 µM (inactive)
SK-MEL-2
  GI50: > 100 µM (inactive)
LOX IMVI
  GI50: 37.3 µM (inactive)
UACC-62
  GI50: 28.8 µM (inactive)
HT-29
  GI50: 85.5 µM (inactive)
OVCAR-8
  GI50: > 100 µM (inactive)
NCI-H226
  GI50: > 100 µM (inactive)
T47D
  GI50: 63.2 µM (inactive)
PC-3
  GI50: 53.7 µM (inactive)
A498
  GI50: 26.4 µM (inactive)
RPMI-8226
  GI50: 18.7 µM (inactive)
SK-OV-3
  GI50: > 100 µM (inactive)
Malme-3M
  GI50: > 100 µM (inactive)
MDA-MB-435
  GI50: 45.7 µM (inactive)
SR
  GI50: 21.3 µM (inactive)
Hs-578T
  GI50: 83.6 µM (inactive)
ACHN
  GI50: > 100 µM (inactive)
EKVX
  GI50: > 100 µM (inactive)
NCI-H23
  GI50: > 100 µM (inactive)
KM12
  GI50: > 100 µM (inactive)
UO-31
  GI50: > 100 µM (inactive)
HCT-116
  GI50: 79.1 µM (inactive)
DU-145
  GI50: 66.4 µM (inactive)
CAKI-1
  GI50: 43 µM (inactive)
SF-268
  GI50: 84.5 µM (inactive)
SK-MEL-5
  GI50: 35.4 µM (inactive)
SK-MEL-28
  GI50: 77.8 µM (inactive)
HOP-62
  GI50: > 100 µM (inactive)
MDA-MB-231
  GI50: 61 µM (inactive)
U-251
  GI50: 77.6 µM (inactive)
IGROV-1
  GI50: 60.7 µM (inactive)
HL-60
  GI50: 21.4 µM (inactive)
NCI-H522
  GI50: > 100 µM (inactive)
SF-295
  GI50: > 100 µM (inactive)
HOP-92
  GI50: 65.2 µM (inactive)
K562
  GI50: 51.9 µM (inactive)
SW-620
  GI50: > 100 µM (inactive)
MOLT-4
  GI50: 36.7 µM (inactive)
RXF 393
  GI50: 70.3 µM (inactive)
BT-549
  GI50: 97.7 µM (inactive)
SNB-75
  GI50: > 100 µM (inactive)
